Laboratory results from publication PMC8471300, “A Computational Workflow for the Identification of Novel Fragments Acting as Inhibitors of the Activity of Protein Kinase CK1δ” (International Journal of Molecular Sciences, 2021).
Like-named read-outs stand apart in the source and are kept apart here.

Assays:
CK1δ (aa 1-294) = target: T1, CK1δ (aa 1-294) (Homo sapiens, UniProt P48730); experiment: CK1δ KinaseGlo luminescence enzymatic assay; format: biochemical; settings: for remaining activity at 40 µM: ligand at 40 μM, mean of two independent experiments in duplicate, read-out: % CK1δ residual activity - fixed dose 40 μM; for IC50: mean of three independent experiments, 95% confidence limits in brackets, 4 μM ATP, 0.1% casein
T1 construct: Compounds were evaluated towards CK1δ (aa 1-294, Merck Millipore); purchased Merck Millipore
T1 sequence (P48730 1-294): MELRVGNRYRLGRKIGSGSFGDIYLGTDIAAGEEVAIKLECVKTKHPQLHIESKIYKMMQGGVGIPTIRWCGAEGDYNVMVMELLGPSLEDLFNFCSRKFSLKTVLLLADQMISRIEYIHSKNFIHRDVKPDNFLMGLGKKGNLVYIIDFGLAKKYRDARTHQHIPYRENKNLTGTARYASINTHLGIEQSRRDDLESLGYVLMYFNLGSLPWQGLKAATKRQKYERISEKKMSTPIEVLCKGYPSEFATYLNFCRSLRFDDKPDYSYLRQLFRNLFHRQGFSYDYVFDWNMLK
Method: Fragments were tested against CK1δ using a luminescent-based assay.
Compounds were evaluated towards CK1δ (aa 1-294, Merck Millipore, Frankfurter Strasse 250, Darmstadt, 64293, Germany) with the KinaseGlo® luminescence assay (Promega Corporation, 2800 Woods Hollow Road Madison, WI 53711, USA) following procedures reported in the literature. In detail, luminescent assays were performed in white 96-well plates, using the following buffer: 50 mM HEPES (pH 7.5),1 mM EDTA, 1 mM EGTA, and 15 mM MgCl2. […] In a typical assay, 10 μL of inhibitor solution (dissolved in DMSO at 10 mM concentration and diluted in assay buffer to the desired concentration) and 10 μL (16 ng) of enzyme solution were added to each well, followed by 20 μL of assay buffer containing 0.1% casein substrate and 4 μM ATP.
After 60 min of incubation at 30 °C, the enzymatic reactions were stopped with 40 μL of KinaseGlo® reagent (Promega). The luminescence signal (relative light unit, RLU) was recorded after 10 min at 25 °C using Tecan Infinite M100. […] Two independent experiments were performed in duplicate and the corresponding residual activity of CK1δ was obtained. Data were analyzed using Excel and reported as the mean of the two experiments with standard deviation. For IC50 determination ten different inhibitor concentrations ranging from 100 to0.026 μM were used and each point was assessedin duplicate. IC50 values are the mean of three independent experiments and 95% confidence limits were also reported. Data were analyzed using GraphPad Prism software (version 8.0).

ALK kinase = target: ALK kinase; design: method as in PMID 19825801; settings: cited from earlier work
CK1δ [1] = target: CK1δ; design: method as in PMID 19825801; settings: cited from earlier work
CK1δ [2] = target: CK1δ; design: method as in PMID 21336281; settings: cited from earlier work

Compound | remaining activity at 40 µM (CK1δ (aa 1-294)) | IC50 (CK1δ (aa 1-294)) | further results
Nc1n[nH]c2cccc(F)c12 [Compound 63] | 35.4% | 24.9 µM | –
Nc1ncnc2nccc(O)c12 [Compound 59] | 24.7% | 13.9 µM | –
CNC(=O)c1c(F)cccc1Nc1nc(Nc2cc3c(cc2OC)CCN3C(=O)CN(C)C)nc2[nH]ccc12 [GSK1838705A] | – | – | IC50 (ALK kinase): […]; Ki (CK1δ [1]): 3.5 µM
Nc1ncnc2sc3c(c12)CCCC3 [Compound 37] | 23.8% | 12.7 µM | –
O=C(Nc1n[nH]c2ccc(-c3cn(Cc4ccccc4)nn3)cc12)c1ccccc1 [CHEMBL1999931] | – | – | Ki (CK1δ [2]; multikinase inhibitor with 3-amino-indazole scaffold): 0.316 µM
Cc1c(C)n(-c2cccnc2)c2ncnc(N)c12 [Compound 52] | 28.3% | 13.5 µM | –
Nc1n[nH]c2cc(Cl)ccc12 [Compound 38] | 24.4% | 20.5 µM | –
CSc1c[nH]c2ncnc(NCCCO)c12 [CHEMBL2000114] | – | – | Ki (CK1δ [2]; same kinome scan from Abbott Labs): 1 µM
Nc1nsc(Nc2ccccc2)n1 [Compound 62] | 28.1% | 18.1 µM | –
N#Cc1c(N)nsc1N1CCOCC1 [Compound 28] | 37.8% | 3.31 µM | –
